Reference: patent US10307357B2, “Prebiotic oral care compositions containing an alkyl glycoside” (COLGATE-PALMOLIVE COMPANY, priority 2013, dated 2019)

What was measured:
Type in all cases: cell-based
[1] = test system: beneficial oral bacteria and pathogenic oral bacteria; assay: Twenty-four hour biofilm growth, conclusion over the panel; conditions: threshold 1.6
Text: Substrates that were able to increase the biofilm mass of at least one of the above beneficial bacteria while not or only minimally increasing the biofilm mass of the pathogenic bacteria are considered to be prebiotic compounds. The increase in biofilm formation of the tested bacteria in response to selected glycosides (β-methyl-D-galactoside and α-methyl-D-galactoside) was investigated by setting up biofilm growth assays in a nutritionally rich medium (brain heart infusion broth (BHI), Oxoid), over 24 hours. Late exponential growth phase liquid cultures were prepared by transferring the respective bacterium from blood agar plates to BHI and overnight incubation at 37° C. in an anaerobic atmosphere for A. viscosus, V. parvula, P. gingivalis, P. intermedia, T. forsythia, A. naeslundii, and C. sputigena, and in a 5% CO2 environment for S. salivarius, S. sanguinis, S. mitis, A. actinomycetemcomitans, S. mutans, and S. gordonii. […] Quantification of the stained biofilm was performed by measuring the absorbance at 630 nm using a Multiskan Ascent microplate reader (Thermo Scientific). […] For each day and for each combination, the average (mean) of the values obtained (as detailed above) for the four technical replicas was calculated to provide a single value for each combination on each day. […]

[2] = test system: Prevotella intermedia; assay: Twenty-four hour optical density growth in BHI; conditions: over 24 hours, control = 1
Procedure: (§1) The extent of growth of the tested bacteria in response to selected glycosides (β-methyl-D-galactoside and α-methyl-D-galactoside) was investigated by setting up growth curves in a nutritionally rich medium (brain heart infusion broth (BHI), Oxoid), over 24 hours. Late exponential growth phase liquid cultures were prepared by transferring the respective bacterium from blood agar plates to BHI and overnight incubation at 37° C. in an anaerobic atmosphere for A. viscosus, V. parvula, F. nucleatum, P. gingivalis, P. intermedia, T. forsythia, A. naeslundii, and C. sputigena, and in a 5% CO2 environment for S. salivarius, S. sanguinis, S. mitis, A. actinomycetemcomitans, S. mutans, S. sobrinus and S. gordonii. Overnight cultures were transferred to BHI and adjusted to a concentration of 1×10^7 CFU/ml (colony forming units per ml) by measuring the optical density at 600 nm (OD600) (BioRad SmartSpec 3000). For each strain, 200 μl of the bacterial suspension was added to a 96-well plate containing 20 μl of the respective glycosides. Final concentrations of the glycosides were set to 5, 10, 20 and 25 μmol/ml. […] Plates were incubated as previously described. For each combination of bacterium/glycoside, and for each of their respective controls (i.e. the particular bacterium in the nutritionally rich medium with no glycoside), the optical density was measured at 630 nm (OD630) at 0 h and 24 h (Thermo Scientific Multiskan Ascent). Additionally, the OD630 for combinations of bacterium/glycosides grown in a 5% CO2 environment were also measured every hour between 0 h and 9 h. […] The experiment was carried out on three different days (thus providing 3 biological replicas) and on each day the experiment was carried out in quadruple (thus providing 4 technical replicas) for each combination of bacterium with glycoside and for each control. For each day and for each combination, the average (mean) of the values obtained (as detailed above) for the four technical replicas was calculated to provide a single value for each combination on each day. The values shown in Tables 5 to 6, below, are the average (mean) of the three single values obtained for each combination of bacterium with glycoside (α-Methyl-D-Galactoside=α-MDG; β-Methyl-D-Galactoside=β-MDG).

[3] = test system: Actinomyces naeslundii; assay: Twenty-four hour optical density growth in BHI; conditions: over 24 hours, control = 1
Procedure: as §1

[4] = test system: Tannerella forsythia; assay: Twenty-four hour optical density growth in BHI; conditions: over 24 hours, control = 1
Procedure: as §1

[5] = test system: Streptococcus sanguinis; assay: Twenty-four hour optical density growth in BHI; conditions: over 24 hours, control = 1
Procedure: as §1

[6] = test system: Capnocytophaga sputigena; assay: Twenty-four hour optical density growth in BHI; conditions: over 24 hours, control = 1
Procedure: as §1

[7] = test system: Veillonella parvula; assay: Twenty-four hour optical density growth in BHI; conditions: over 24 hours, control = 1
Procedure: as §1

[8] = test system: Streptococcus sobrinus; assay: Twenty-four hour optical density growth in BHI; conditions: over 24 hours, control = 1
Procedure: as §1

[9] = test system: Fusobacterium nucleatum; assay: Twenty-four hour optical density growth in BHI; conditions: over 24 hours, control = 1
Procedure: as §1

[10] = test system: Actinomyces viscosus; assay: Twenty-four hour optical density growth in BHI; conditions: over 24 hours, control = 1
Procedure: as §1

Compound	maximal OD630 divided by control (extent of growth) ([2]; 5 μmol/ml)	maximal OD630 divided by control (extent of growth) ([2]; 10 μmol/ml)	maximal OD630 divided by control (extent of growth) ([2]; 20 μmol/ml)	maximal OD630 divided by control (extent of growth) ([2]; 25 μmol/ml)	maximal OD630 divided by control (extent of growth) ([3]; 5 μmol/ml)	maximal OD630 divided by control (extent of growth) ([3]; 10 μmol/ml)	maximal OD630 divided by control (extent of growth) ([3]; 20 μmol/ml)	maximal OD630 divided by control (extent of growth) ([3]; 25 μmol/ml)	maximal OD630 divided by control (extent of growth) ([4]; 5 μmol/ml)	maximal OD630 divided by control (extent of growth) ([4]; 10 μmol/ml)	maximal OD630 divided by control (extent of growth) ([4]; 20 μmol/ml)	maximal OD630 divided by control (extent of growth) ([4]; 25 μmol/ml)	maximal OD630 divided by control (extent of growth) ([5]; 5 μmol/ml)	maximal OD630 divided by control (extent of growth) ([5]; 10 μmol/ml)	maximal OD630 divided by control (extent of growth) ([5]; 20 μmol/ml)	maximal OD630 divided by control (extent of growth) ([5]; 25 μmol/ml)	maximal OD630 divided by control (extent of growth) ([6]; 5 μmol/ml)	maximal OD630 divided by control (extent of growth) ([6]; 10 μmol/ml)	maximal OD630 divided by control (extent of growth) ([6]; 20 μmol/ml)	maximal OD630 divided by control (extent of growth) ([6]; 25 μmol/ml)	also measured
CO[C@H]1O[C@H](CO)[C@H](O)[C@H](O)[C@H]1O [α-methyl-D-galactoside]	0.9203	0.9043	0.8637	0.8498	0.9762	0.9994	0.9595	0.9481	0.9724	0.9898	0.9846	1.0112	0.9521	0.9343	0.8872	0.9294	0.8698	0.8897	0.8728	0.8809	prebiotic effect (biofilm growth), in words ([1]; at concentrations of 5, 10, and 20 μmol/ml): exhibited prebiotic effects; maximal OD630 divided by control (extent of growth) ([7]; 5 μmol/ml): 0.9160; maximal OD630 divided by control (extent of growth) ([7]; 10 μmol/ml): 0.9528; maximal OD630 divided by control (extent of growth) ([7]; 20 μmol/ml): 0.9141; maximal OD630 divided by control (extent of growth) ([7]; 25 μmol/ml): 0.9326; maximal OD630 divided by control (extent of growth) ([8]; 5 μmol/ml): 0.9005; maximal OD630 divided by control (extent of growth) ([8]; 10 μmol/ml): 0.8975; maximal OD630 divided by control (extent of growth) ([8]; 20 μmol/ml): 0.8858; maximal OD630 divided by control (extent of growth) ([8]; 25 μmol/ml): 0.9052; maximal OD630 divided by control (extent of growth) ([9]; 5 μmol/ml): 0.8598; maximal OD630 divided by control (extent of growth) ([9]; 10 μmol/ml): 0.8398; maximal OD630 divided by control (extent of growth) ([9]; 20 μmol/ml): 0.7917; maximal OD630 divided by control (extent of growth) ([9]; 25 μmol/ml): 0.7921; maximal OD630 divided by control (extent of growth) ([10]; 5 μmol/ml): 0.6181; maximal OD630 divided by control (extent of growth) ([10]; 10 μmol/ml): 0.5756; maximal OD630 divided by control (extent of growth) ([10]; 20 μmol/ml): 0.4433; maximal OD630 divided by control (extent of growth) ([10]; 25 μmol/ml): 0.4453
CO[C@@H]1O[C@H](CO)[C@H](O)[C@H](O)[C@H]1O [β-methyl-D-galactoside]	0.9000	0.8909	0.9071	0.9102	0.9746	0.9516	0.9705	0.9802	0.9652	0.9920	0.9847	1.0042	0.8787	0.8540	0.8629	0.8842	0.8841	0.8633	0.8645	0.8575	prebiotic effect (biofilm growth), in words ([1]; at concentrations of 5, 10, 20 and 25 μmol/ml): exhibited prebiotic effects; maximal OD630 divided by control (extent of growth) ([7]; 5 μmol/ml): 0.8912; maximal OD630 divided by control (extent of growth) ([7]; 10 μmol/ml): 0.9129; maximal OD630 divided by control (extent of growth) ([7]; 20 μmol/ml): 0.9145; maximal OD630 divided by control (extent of growth) ([7]; 25 μmol/ml): 0.9462; maximal OD630 divided by control (extent of growth) ([8]; 5 μmol/ml): 0.8914; maximal OD630 divided by control (extent of growth) ([8]; 10 μmol/ml): 0.8818; maximal OD630 divided by control (extent of growth) ([8]; 20 μmol/ml): 0.9110; maximal OD630 divided by control (extent of growth) ([8]; 25 μmol/ml): 0.9111; maximal OD630 divided by control (extent of growth) ([9]; 5 μmol/ml): 0.8134; maximal OD630 divided by control (extent of growth) ([9]; 10 μmol/ml): 0.8181; maximal OD630 divided by control (extent of growth) ([9]; 20 μmol/ml): 0.8161; maximal OD630 divided by control (extent of growth) ([9]; 25 μmol/ml): 0.8213; maximal OD630 divided by control (extent of growth) ([10]; 5 μmol/ml): 0.6467; maximal OD630 divided by control (extent of growth) ([10]; 10 μmol/ml): 0.6333; maximal OD630 divided by control (extent of growth) ([10]; 20 μmol/ml): 0.6745; maximal OD630 divided by control (extent of growth) ([10]; 25 μmol/ml): 0.6464
